From patent US20230257351A1, “SUBSTITUTED N-[…] HAVING P2X4 RECEPTOR ANTAGONISTIC ACTIVITY” (Bayer Aktiengesellschaft, priority 2020, published 2023)

Biological target: T1, human P2X4 (Homo sapiens, UniProt Q99571)
T1 construct: expressed in transfected cells
T1 sequence (Q99571 1-388): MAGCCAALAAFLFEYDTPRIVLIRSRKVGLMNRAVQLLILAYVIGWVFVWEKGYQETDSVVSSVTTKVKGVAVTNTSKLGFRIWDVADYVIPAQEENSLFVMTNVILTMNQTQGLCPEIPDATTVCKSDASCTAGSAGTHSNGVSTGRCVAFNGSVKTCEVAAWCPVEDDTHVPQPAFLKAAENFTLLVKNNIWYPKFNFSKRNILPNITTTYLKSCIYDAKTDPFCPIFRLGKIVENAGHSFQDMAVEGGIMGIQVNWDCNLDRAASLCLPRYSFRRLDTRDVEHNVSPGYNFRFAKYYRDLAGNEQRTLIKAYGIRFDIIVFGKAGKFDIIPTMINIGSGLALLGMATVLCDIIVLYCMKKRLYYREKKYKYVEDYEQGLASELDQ
Test: Human P2X4 HEK Cell FLIPR Assay
Type: cell-based
Conditions: HEK293 stably expressing human P2X4, agonist Bz-ATP 3 μM (EC80); for IC50: read-out: Human P2X4 HEK Cells (FLIPR Assay) avg IC50
Method: Compounds were tested on a HEK293 cell line stably expressing human P2X4. Cells were cultured on poly-D-lysine-coated 384-well plates at a density of 15,000 cells/well and incubated overnight at 37° C., 5% CO2. P2X4 function was assessed by measuring intracellular calcium fluxes caused by Benzoylbenzoyl-ATP (Bz-ATP) using the calcium-chelating dye Fluo8-AM (Molecular Devices) with the Fluorescent Imaging Plate Reader Tetra (FLIPR^Tetra; Molecular Devices CA). On the day of the assay, the medium was removed and the cells were incubated for 30 min at 37° C. and 5% CO2 in 30 μl of dye buffer (Hank's balanced salt solution, 10 mM HEPES, 1.8 mM CaCl2, 1 mM MgCl2, 2 mM probenecid, 5 mM D-glucose monohydrate, 5 μM Fluo8-AM, pH=7.4). Compounds diluted in probenecid buffer (Hank's balanced salt solution, 10 mM HEPES, 1.8 mM CaCl2, 1 mM MgCl2, 2 mM probenecid, 5 mM D-glucose monohydrate, pH=7.4) at ten concentrations ranging from 25 μM to 1 nM (final concentration) were dispensed and incubated for 30 min at room temperature. […] The final assay volume was 50 μl and final DMSO concentration was 0.5%.
The fluorescence intensity reflecting intracellular calcium changes was recorded before and after Bz-ATP addition, at an excitation and emission wavelengths of 470-495 nm and 515-575 nm respectively.
The compounds were tested in triplicates and fluorescence intensity raw data normalized to the agonist control and fitted to the four-parameter logistic equation:
Y=Bottom+(Top−Bottom)/(1+10^((Log IC50−X)*HillSlope))
Assay plate acceptance was based on the signal window (S/B)[…] and the reference compound pIC50 within ±3σ the mean of historic pIC50 of the compound. Failure to meet two of the three criteria determined exclusion of the plate's results.

| Structure (SMILES) | Human P2X4 HEK Cells (FLIPR Assay) avg Efficacy [%] | IC50 [nM] |
| --- | --- | --- |
| CC(=O)N(c1cc(NC(=O)Cc2cccc(F)c2Cl)ccn1)c1cccc(F)c1F [Example 124, N-{4-[2-(2-chloro-3-fluorophenyl)acetamido]pyridin-2-yl}-N-(2,3-difluorophenyl)acetamide] | 94 | 289 |
| CC(=O)N(c1cc(NC(=O)Cc2c(Cl)cccc2Cl)ccn1)c1cccc(F)c1F [Example 125, N-{4-[2-(2,6-dichlorophenyl)acetamido]pyridin-2-yl}-N-(2,3-difluorophenyl)acetamide] | 95 | 577 |
| CC(=O)N(c1cccc(Cl)c1)c1cc(NC(=O)Cc2c(Cl)cccc2Cl)ccn1 [Example 134, N-(3-chlorophenyl)-N-{4-[2-(2,6-dichlorophenyl)acetamido]pyridin-2-yl}acetamide] | 99 | 504 |
| CC(=O)N(c1cc(F)cc(Cl)c1)c1cc(NC(=O)Cc2ccccc2Cl)ccn1 [Example 136, N-(3-chloro-5-fluorophenyl)-N-{4-[2-(2-chlorophenyl)acetamido]pyridin-2-yl}acetamide] | 94 | 310 |
| CC(=O)N(c1cc(F)cc(Cl)c1)c1cc(NC(=O)Cc2ccc(F)cc2Cl)ccn1 [Example 137, N-(3-chloro-5-fluorophenyl)-N-{4-[2-(2-chloro-4-fluorophenyl)acetamido]pyridin-2-yl)acetamide] | 104 | 290 |
| CC(=O)N(c1cc(F)cc(Cl)c1)c1cc(NC(=O)Cc2cccc(F)c2Cl)ccn1 [Example 138, N-(3-chloro-5-fluorophenyl)-N-{4-[2-(2-chloro-3-fluorophenyl)acetamido]pyridin-2-yl}acetamide] | 96 | 316 |
| CC(=O)N(c1cc(F)cc(Cl)c1)c1cc(NC(=O)Cc2c(Cl)cccc2Cl)ccn1 [Example 139, N-(3-chloro-5-fluorophenyl)-N-{4-[2-(2,6-dichlorophenyl)acetamido]pyridin-2-yl}acetamide] | 100 | 356 |
| CC(=O)N(c1cc(F)cc(Cl)c1)c1cc(NC(=O)Cc2c(F)cccc2Cl)ccn1 [Example 140, N-(3-chloro-5-fluorophenyl)-N-{4-[2-(2-chloro-6-fluorophenyl)acetamido]pyridin-2-yl)acetamide] | 105 | 271 |
| CC(=O)N(c1cc(F)cc(C#N)c1)c1cc(NC(=O)Cc2ccccc2Cl)ccn1 [Example 145, N-{4-[2-(2-Chlorphenyl)acetamido]pyridin-2-yl}-N-(3-cyan-5-fluorphenyl)acetamide] | 98 | 234 |
| CC(=O)N(c1cc(F)cc(C#N)c1)c1cc(NC(=O)Cc2c(Cl)cccc2Cl)ccn1 [Example 146, N-(3-Cyan-5-fluorphenyl)-N-{4-[2-(2,6-dichlorphenyl)acetamido]pyridin-2-yl}acetamide] | 103 | 337 |
| CC(=O)N(c1cc(F)cc(C#N)c1)c1cc(NC(=O)Cc2cccc(F)c2Cl)ccn1 [Example 147, N-{4-[2-(2-Chlor-3-fluorphenyl)acetamido]pyridin-2-yl}-N-(3-cyan-5-fluorphenyl)acetamide] | 97 | 384 |
| CC(=O)N(c1cc(F)cc(C#N)c1)c1cc(NC(=O)Cc2c(F)cccc2Cl)ccn1 [Example 148, N-{4-[2-(2-Chlor-6-fluorphenyl)acetamido]pyridin-2-yl}-N-(3-cyan-5-fluorphenyl)acetamide] | 96 | 436 |
| CC(=O)N(c1cc(F)cc(C#N)c1)c1cc(NC(=O)Cc2ccc(F)cc2Cl)ccn1 [Example 149, N-{4-[2-(2-Chlor-4-fluorphenyl)acetamido]pyridin-2-yl}-N-(3-cyan-5-fluorphenyl)acetamide] | 100 | 450 |
| CC(=O)N(c1cc(NC(=O)Cc2ccccc2Cl)ccn1)c1ccc(F)cc1Cl [Example 150, N-(2-Chlor-4-fluorphenyl)-N-{4-[2-(2-chlorphenyl)acetamido]pyridin-2-yl}acetamide] | 102 | 297 |
| CC(=O)N(c1cc(NC(=O)Cc2ccc(F)cc2Cl)ccn1)c1ccc(F)cc1Cl [Example 151, N-(2-Chlor-4-fluorphenyl)-N-{4-[2-(2-chlor-4-fluorphenyl)acetamido]pyridin-2-yl}acetamide] | 104 | 355 |
| CC(=O)N(c1cc(NC(=O)Cc2c(Cl)cccc2Cl)ccn1)c1ccc(F)cc1Cl [Example 152, N-(2-Chlor-4-fluorphenyl)-N-{4-[2-(2,6-dichlorphenyl)acetamido]pyridin-2-yl}acetamide] | 104 | 441 |
| CC(=O)N(c1cc(NC(=O)Cc2c(F)cccc2Cl)ccn1)c1ccc(F)cc1Cl [Example 153, N-(2-Chlor-4-fluorphenyl)-N-{4-[2-(2-chlor-6-fluorphenyl)acetamido]pyridin-2-yl}acetamide] | 102 | 476 |
| CC(=O)N(c1cc(NC(=O)Cc2cccc(F)c2Cl)ccn1)c1ccc(F)cc1Cl [Example 154, N-(2-Chlor-4-fluorphenyl)-N-{4-[2-(2-chlor-3-fluorphenyl)acetamido]pyridin-2-yl}acetamide] | 101 | 511 |
| CC(=O)N(c1ccc(S(C)(=O)=O)c(Cl)c1)c1cc(NC(=O)Cc2c(Cl)cccc2Cl)ccn1 [Example 155, N-[3-Chlor-4-(methylsulfonyl)phenyl]-N-{4-[2-(2,6-dichlorphenyl)acetamido]pyridin-2-yl)acetamide] | 100 | 339 |
| CC(=O)N(c1ccc(S(C)(=O)=O)c(Cl)c1)c1cc(NC(=O)Cc2cccc(F)c2Cl)ccn1 [Example 156, N-{4-[2-(2-Chlor-3-fluorphenyl)acetamido]pyridin-2-yl}-N-[3-chlor-4-(methylsulfonyl)phenyl]acetamide] | 96 | 512 |
| CC(=O)N(c1ccc(S(C)(=O)=O)c(Cl)c1)c1cc(NC(=O)Cc2ccccc2Cl)ccn1 [Example 157, N-[3-Chlor-4-(methylsulfonyl)phenyl]-N-{4-[2-(2-chlorphenyl)acetamido]pyridin-2-yl}acetamide] | 97 | 644 |
| CC(=O)N(c1ccc(S(C)(=O)=O)c(Cl)c1)c1cc(NC(=O)Cc2c(F)cccc2Cl)ccn1 [Example 158, N-{4-[2-(2-Chlor-6-fluorphenyl)acetamido]pyridin-2-yl}-N-[3-chlor-4-(methylsulfonyl)phenyl]acetamide] | 97 | 649 |
| CC(=O)N(c1ccc(S(C)(=O)=O)c(Cl)c1)c1cc(NC(=O)Cc2ccc(F)cc2Cl)ccn1 [Example 159, N-{4-[2-(2-Chlor-4-fluorphenyl)acetamido]pyridin-2-yl}-N-[3-chlor-4-(methylsulfonyl)phenyl]acetamide] | 99 | 949 |
